Experimental data reported in US12528795B2, “Crystal form of multi-substituted benzene ring compound maleate, and preparation method therefor and use thereof” (EVOPOINT BIOSCIENCES CO., LTD., priority 2020, dated 2026).
≈ marks a conversion by molar mass, not a printed value. Entries after “also recorded” stand apart in the source; their conditions may differ. Like-named read-outs stand apart in the source and are kept apart here. One block for each compound: values may come before it.

Tests used:
Type in all cases: physicochemical
[1] = Suspension competition experiments on crystal form A and hydrate crystal forms C and D of maleate at different water activities (XRPD); conditions: room temperature, 3.5 h
[2] = as above; conditions: for Result (crystal form by XRPD after suspension competition): H2O
Protocol: The mixtures were stirred at room temperature for 24 h, and then filtered to obtain saturated solutions. About 10 mg of a crystal form A/C/D of maleate was added to each saturated solution, the mixtures were suspended and stirred at room temperature for 2 days, and then subjected to the XRPD test. Two 5-mL vials were taken, water (2 mL) was added to each vial, and excessive crystal form B of maleate was added. The mixtures were stirred at 50° C./80° C. for 20 h/2 h, and then filtered to obtain saturated solutions. About 10 mg of the crystal form A/C/D of maleate was added to each saturated solution, and the mixtures were suspended and stirred at 50° C./80° C. for 1 day/3.5 h, and then subjected to the XRPD test.

[3] = Suspension competition experiments on anhydrous crystal forms A and B of maleate (XRPD); conditions: for Results (crystal form by XRPD after suspension competition): 3 days
Protocol: Suspention competition experiments on anhydrous crystal forms A and B of maleate were conducted as follows: Four 5-mL vials were taken, IPA (2 mL) and IPAc (2 mL) were added to each vial, and excessive crystal form B of maleate was added. The mixtures were stirred at room temperature/50° C. for 24 h, and then filtered to obtain saturated solutions of the maleate in IPA and IPAc. About 10 mg of a crystal form A/B of maleate was added to each saturated solution, the mixtures were suspended and stirred at room temperature/50° C. for 3 days, and then subjected to the XRPD test.

[4] = Dynamic solubility in SGF, FaSSIF, FeSSIF and water at 37° C.; conditions: thermodynamic from solid, sampling at 1, 2, 4 and 24 h, time point of the value not stated
Protocol: (§1) The purity and solubility of the samples in the test were tested by Waters ultra performance liquid chromatograph, and the conditions are shown in Table 6:
In the test, 45 mg of the solid and 4.5 mL of the vehicle were mixed in a 5 mL centrifuge tube, then the centrifuge tube was sealed and fixed on a rotating disk at a rotating speed of 40 rpm, and the rotating disk was placed in a 37° C. incubator. Sampling was performed at four time points of 1, 2, 4 and 24 h on equilibration, followed by filtration. The filtrate was separated at each sampling time point to test the concentration and pH, and the solid was tested for crystal form.

[5] = Hygroscopicity by dynamic vapor sorption (DVS); conditions: for Crystal form after DVS test: XRPD after DVS 0% RH-95% RH-0% RH, 25° C.
Protocol: Dynamic vapor sorption (DVS) curves were acquired on a DVS Intrinsic in Surface Measurement Systems (SMS). The relative humidity at 25° C. was corrected with the deliquescence points of LiCl, Mg(NO3)2 and KCl.
After the mass change rate over time was less than 0.002%, the moisture absorption characteristics of the samples when the humidity changed from 0% RH to 95% RH were tested, as well as the moisture desorption characteristics of the samples when the humidity changed from 0% RH to 95% RH to 0% RH were tested, and the humidity change step was 10% RH. The value of the mass change rate dm/dt less than 0.002% was considered as balance equilibration, the mass change rate within 10 min less than 0.002%/min was considered as the equilibration standard during the testing process, and the maximum equilibration time was 3 h. The isothermal moisture sorption/desorption characteristics under this test condition were determined and XRPD test was performed on the samples after the DVS test.

[6] = Fluidity (angle of repose of a single API); conditions: D90 controlled at 200 μm
[7] = Physical and chemical stability in open vials (HPLC purity, XRPD); conditions: for Crystal form change: XRPD; for Stability sample purity (area percentage): initial purity 98.86
Protocol: as §1
The solid samples placed under different conditions were tested for purity by HPLC to assess the chemical stability and for crystal form by XRPD to assess the physical stability.

[8] = Crystal form transformation on heating, cooling or drying
Protocol: The obtained sample was determined to be a crystal form E of maleate of the multi-substituted benzene ring compound of formula II by X-ray powder diffraction.

[9] = FaSSIF, FaSSIF, read-out: Dynamic solubility in FaSSIF
[10] = FeSSIF, FeSSIF, read-out: Dynamic solubility in FeSSIF
[11] = SGF, simulated gastric fluid, SGF, read-out: Dynamic solubility in SGF
[12] = water, water, read-out: Dynamic solubility in water
[13] = open vial, 25° C./60% RH, one week
[14] = open vial, 40° C./75% RH, one week

Result (crystal form by XRPD after suspension competition) ([1]; EtOH): Crystal form A of maleate | Result (crystal form by XRPD after suspension competition) ([1]; EtOH/H2O (70:30, aw = 0.8)): Crystal form C of maleate | Result (crystal form by XRPD after suspension competition) ([1]; EtOH/H2O (82:18, aw = 0.6)): Crystal form C of maleate | Result (crystal form by XRPD after suspension competition) ([1]; EtOH/H2O (91:9, aw = 0.4)): Crystal form C of maleate | Result (crystal form by XRPD after suspension competition) ([1]; EtOH/H2O (96:4, aw = 0.2)): Crystal form A of maleate | Result (crystal form by XRPD after suspension competition) ([1]; H2O): Crystal form C of maleate | Result (crystal form by XRPD after suspension competition) ([2]; 50° C., 1 day): Crystal form C of maleate | Result (crystal form by XRPD after suspension competition) ([2]; 80° C., 3.5 h): Crystal form C of maleate
Structure (SMILES): CCN(c1cc(O[C@H]2C[C@H](N3CCCCC3)C2)cc(C(=O)NCc2c(C)cc(C)[nH]c2=O)c1C)C1CCOCC1.O=C(O)/C=C\C(=O)O [Crystal form A/C/D of maleate]

Crystal form transformation after drying ([8]; dried at 170° C.): transformed into the crystal form A | Crystal form transformation by suspending and stirring ([2]; ethanol solution with a water activity of 0.2 or absolute ethanol, room temperature): transformed into the crystal form A
Structure (SMILES): CCN(c1cc(O[C@H]2C[C@H](N3CCCCC3)C2)cc(C(=O)NCc2c(C)cc(C)[nH]c2=O)c1C)C1CCOCC1.O=C(O)/C=C\C(=O)O [Crystal form C of maleate]

solubility [4, 9]: 420 µg/mL (≈ 763 µM) | solubility [4, 10]: > 7350 µg/mL | solubility [4, 11]: 6980 µg/mL (≈ 12700 µM) | solubility [4, 12]: 16 µg/mL (≈ 29.1 µM) | DVS vapor sorption (25° C./80% RH, %) [5]: 1.3%
Structure (SMILES): CCN(c1cc(O[C@H]2C[C@H](N3CCCCC3)C2)cc(C(=O)NCc2c(C)cc(C)[nH]c2=O)c1C)C1CCOCC1 [Free crystal form D]

More lines, now with the values behind:

Structure (SMILES): CCN(c1cc(O[C@H]2C[C@H](N3CCCCC3)C2)cc(C(=O)NCc2c(C)cc(C)[nH]c2=O)c1C)C1CCOCC1.O=C(O)/C=C\C(=O)O [Crystal form A/B of maleate]
Results (crystal form by XRPD after suspension competition) ([3]; IPA, 50° C.): Crystal form A of maleate | Results (crystal form by XRPD after suspension competition) ([3]; IPA, room temperature): Crystal form A of maleate | Results (crystal form by XRPD after suspension competition) ([3]; IPAc, 50° C.): Crystal form A of maleate | Results (crystal form by XRPD after suspension competition) ([3]; IPAc, room temperature): Crystal form A of maleate

Structure (SMILES): CCN(c1cc(O[C@H]2C[C@H](N3CCCCC3)C2)cc(C(=O)NCc2c(C)cc(C)[nH]c2=O)c1C)C1CCOCC1.O=C(O)/C=C\C(=O)O [Crystal form A of maleate]
solubility [4, 9]: 4150 µg/mL | solubility [4, 10]: > 7350 µg/mL | solubility [4, 11]: ≥ 6000 µg/mL | solubility [4, 12]: 6990 µg/mL | DVS vapor sorption (25° C./80% RH, %) [5]: 0.4% | Crystal form after DVS test [5]: Unchanged | Crystal form after DVS test ([5]; listed as crystal form A of maleate): crystal form transformation did not occur | Stability ranking among the 5 crystal forms of maleate ([2]; conclusion from the examples and suspension competition experiments): most stable among the 5 crystal forms of maleate | Angle of repose of a single API [6]: about 40 ° | Angle of repose of a single API ([6]; as printed in b231): about 400 | Relative stability of crystal forms A and B of maleate ([3]; room temperature/50° C.): more stable than the crystal form B | Initial purity (area percentage) ([7]; before storage): 98.86 area percentage | Crystal form change [7, 13]: Unchanged | Stability sample purity (area percentage) [7, 13]: 98.79 area percentage | Crystal form change [7, 14]: Unchanged | Stability sample purity (area percentage) [7, 14]: 98.79 area percentage | Physical and chemical stability under three test conditions ([7]; open vial, 60° C. one day, 25° C./60% RH and 40° C./75% RH one week): did not undergo crystal form transformation and chemical purity decrease; also recorded: no crystal form transformation and chemical purity decrease | Crystal form change ([7]; open vial, 60° C., 24 h): Unchanged | Stability sample purity (area percentage) ([7]; open vial, 60° C., 24 h): 98.79 area percentage

Structure (SMILES): CCN(c1cc(O[C@H]2C[C@H](N3CCCCC3)C2)cc(C(=O)NCc2c(C)cc(C)[nH]c2=O)c1C)C1CCOCC1.O=C(O)/C=C\C(=O)O [Crystal form E of maleate]
Crystal form transformation after cooling to room temperature ([8]; form obtained only at high temperature, then cooled to room temperature): retransformed into the crystal form A of maleate

Structure (SMILES): Br.CCN(c1cc(O[C@H]2C[C@H](N3CCCCC3)C2)cc(C(=O)NCc2c(C)cc(C)[nH]c2=O)c1C)C1CCOCC1 [Crystal form A of hydrobromide]
solubility [4, 9]: 1390 µg/mL | solubility [4, 10]: 5330 µg/mL | solubility [4, 12]: 4260 µg/mL | DVS vapor sorption (25° C./80% RH, %) [5]: 5.2%

Structure (SMILES): CCN(c1cc(O[C@H]2C[C@H](N3CCCCC3)C2)cc(C(=O)NCc2c(C)cc(C)[nH]c2=O)c1C)C1CCOCC1.O=C(O)CCC(=O)O [Crystal form A of succinate]
solubility [4, 9]: 5390 µg/mL | solubility [4, 10]: > 7350 µg/mL | solubility [4, 11]: ≥ 6000 µg/mL | solubility [4, 12]: > 8440 µg/mL | DVS vapor sorption (25° C./80% RH, %) [5]: 2.1%
